Where two headings read alike, the source gives them in different places.
Columns and labels:
[1] = tested on: HCT-116 wild-type cells; assay: Inhibitory activity on proliferation of HCT-116 wild-type cells (Cell-Titer Glo); format: cell-based; settings: 8 d incubation
Method: Cell culture: HCT-116 wild-type cells were cultured with a RPMI-1640 medium containing 10% fetal bovine serum+1% penicillin-streptomycin at 37°C in 5% carbon dioxide. Only cells in the logarithmic growth phase could be used for the test.
Test of cell proliferation activity: Cell-Titer Glo kit was used to test the proliferation inhibitory activity of the compound on HCT-116 wild-type cells. The cell concentration was adjusted, rendering that cells were inoculated into a 384-well plate at 40 µL per well and incubated overnight at 37°C and 5% carbon dioxide. 40 nL of the compound was added to each well to reach a final concentration of 0-10,000 nM (starting concentration 10,000 nM, 2-fold dilution, 10 points), and the cell plate with 0.1% DMSO content was incubated at 37°C and 5% carbon dioxide for 8 d. 40 µL of Cell-Titer Glo reagent was added to test cell viability.

[2] = tested on: LU99 MTAP overexpressing cells; assay: Inhibitory activity on proliferation of LU99 MTAP overexpressing cells (Cell-Titer Glo); format: cell-based; settings: 6 d incubation
Method: Materials and cells: LU99 MTAP overexpressing cell line was purchased from Kyinno Biotechnology (China); cell culture medium and fetal bovine serum were purchased from Thermo Fisher Scientific (USA); 384-well plates were purchased from PerkinElmer (USA); Cell-Titer Glo kits were purchased from Promega (USA).
Cell culture: LU99 MTAP overexpressing cells were cultured with medium containing 10% fetal bovine serum at 37°C in 5% carbon dioxide. Only cells in the logarithmic growth phase could be used for the test.
Test of inhibitory activity on cell proliferation: The Cell-Titer Glo kit was used to test the proliferation inhibitory activity of the compounds on LU99 MTAP overexpressing cells. The cell concentration was adjusted, rendering that cells were inoculated into a 384-well plate at 40 µL per well and incubated overnight at 37°C and 5% carbon dioxide. 40 nL of the compound was added to each well to reach a final concentration of 0-10,000 nM (starting concentration 10,000 nM, 2.5-fold dilution, 10 points), and the cell plate with 0.2% DMSO content was incubated at 37°C and 5% carbon dioxide for 6 d. 40 µL of Cell-Titer Glo reagent was added to test cell viability.

[3] = tested on: HCT-116 MTAP(-/-)deleted cells; settings: 192 h
Method: (§1) Only cells in the logarithmic growth phase could be used for the test. […] The cell concentration was adjusted, rendering that cells were inoculated into a 384-well plate at 40 µL per well and incubated overnight at 37°C and 5% carbon dioxide. 40 nL of the compound was added to each well to reach a final concentration of 0-10,000 nM (starting concentration 10,000 nM, 3-fold dilution, 10 points), and the cell plate with 0.1% DMSO content was incubated at 37°C and 5% carbon dioxide for 8 d. 40 µL of Cell-Titer Glo reagent was added to test cell viability.

[4] = tested on: LU99 MTAP(-/-)deleted cells; settings: 144 h
Method: (§2) Materials and cells: LU99 MTAP deleted cell line was purchased from Kyinno Biotechnology (China); cell culture medium and fetal bovine serum were purchased from Thermo Fisher Scientific (USA); 384-well plates were purchased from PerkinElmer (USA); Cell-Titer Glo kits were purchased from Promega (USA). Cell culture: LU99 MTAP(-/-)deleted cells were cultured with medium containing 10% fetal bovine serum at 37°C in 5% carbon dioxide. Only cells in the logarithmic growth phase could be used for the test.
(§3) Test of inhibitory activity on cell proliferation: The Cell-Titer Glo kit was used to test the proliferation inhibitory activity of the compounds on LU99 MTAP(-/-)deleted cells. The cell concentration was adjusted, rendering that cells were inoculated into a 384-well plate at 40 µL per well and incubated overnight at 37°C and 5% carbon dioxide. […] 40 µL of Cell-Titer Glo reagent was added to test cell viability.

[5] = Pharmacokinetic test in mice; format: in vivo; settings: male, mouse, plasma, ICR mice; for bioavailability: read-out: Bioavailability (F)
Method: The test compounds are compounds according to examples of the present disclosure
ICR male mice N=3/group; original source: Zhejiang Vital River Laboratory Animal Technology Co., Ltd.
Single oral administration (PO) to ICR mice: The compound was weighed and dissolved with DMSO, a certain volume of polyethylene glycol 400 and water for injection (WFI) were added, and then a small volume of 1 mol/L hydrochloric acid solution was added to adjust to a clear solution. […]
Single intravenous (IV) administration to ICR mice: The compound was weighed and dissolved with DMSO, a certain volume of polyethylene glycol 400 and water for injection (WFI) were added, and then a small volume of 1 mol/L hydrochloric acid solution was added to adjust to a clear solution. The administration via tail vein injection was conducted for a total of 3 mice after fasting overnight at a dose of 3 mg/kg.
Blood was collected from the dorsalis pedis vein at approximately 30 µL/time point, anticoagulated with dipotassium ethylenediaminetetraacetate and kept on ice until plasma was separated by centrifugation (4000 g/min; 5 min; 4°C) within 1 h. The blood sampling time points were 0.0833 (intravenous injection), 0.25, 0.5, 1, 2, 4, 6, 8, and 24 h. The samples were stored in a refrigerator at -20°C.
A total of 30 µL of plasma sample (10 µL sample + 20 µL blank plasma sample) was added with 200 µL ice-cold ACN containing internal standard, vortexed for 30 s, and centrifuged at 4000 g/min for 20 min. A total of 100 µL of the supernatant was transferred to a 96-well plate, 200 µL of ultrapure water was added, vortexed for 30 s, and 5 µL or 10 µL was injected into LC-MS/MS for analysis. Table 2: Pharmacokinetic Data

[6] = tested on: LU99 MTAP(-/-)deleted cells; assay: Inhibitory activity on proliferation of LU99 MTAP(-/-)deleted cells (Cell-Titer Glo); settings: Homo sapiens, Lu-99, 144 h, read-out: IC50 (nM) Lu99 MTAP(-/-)Deleted, LU99 MTAP(-/-)deleted cells, 6 d incubation, Cell-Titer Glo
Method: as §2, §3

[7] = tested on: HCT-116 MTAP(-/-)deleted cells; assay: Inhibitory activity on proliferation of HCT-116 MTAP(-/-)deleted cells (Cell-Titer Glo); settings: Homo sapiens, HCT-116, 192 h, read-out: IC50 (nM) HCT-116 MTAP(-/-)deleted
Method: as §1

IC50 [1] [nM] | IC50 [3] [nM] | IC50 [4] [nM] | IC50 ([1]; Homo sapiens, HCT-116, 192 h) [nM] | bioavailability ([5]; PO(30mg/kg)) [%] | bioavailability ([5]; PO(100mg/kg)) [%] | AUC(0-t) ([5]; IV(3mg/kg)) [µg·h/mL] | half-life ([5]; IV(3mg/kg)) [h] | AUC(0-t) ([5]; PO(30mg/kg)) [µg·h/mL] | half-life ([5]; PO(30mg/kg)) [h] | AUC(0-t) ([5]; PO(100mg/kg)) [µg·h/mL] | half-life ([5]; PO(100mg/kg)) [h] | IC50 [7] [nM] | SMILES | IC50 [2] [nM] | IC50 ([2]; Homo sapiens, Lu-99, 144 h) [nM] | IC50 [6] [nM]
10000 | 110 | 88.5 |  |  |  |  |  |  |  |  |  |  | CN(C(=O)c1ccc2nc(N)c3cncn3c2c1)C1COC2(CCC2)c2cc(N3CCOCC3)ncc21 (stereo not shown) [Example 6, 4-Amino-N-methyl-N-(7'-morpholinyl-3',4'-dihydrospiro[cyclobutane-1,1'-pyrano[4,3-c]pyridine]-4'-yl)imidazo[1,5-a]quinoxaline-8-carboxamide] | 3880 |  | 
 |  |  | 1040 | 86.5 | 48.2 | 25.4 | 2.37 | 220 | 1.47 | 408 | 2.06 | 5.8 | CN(C(=O)c1ccc2nc(N)c3cncn3c2c1)[C@@H]1COC2(CC2)c2cc(C(F)(F)F)ccc21 [Example 54, (S)-4-amino-N-methyl-N-(7'-(trifluoromethyl)spiro[cyclopropane-1,1'-isochroman]-4'-yl)imidazo[1,5-a]quinoxaline-8-carboxamide] |  | 1100 | 8.11

Reference: patent publication EP4818171A1 (Apeiron Therapeutics (Hong Kong) Ltd., priority 2024, dated 2025)
